Measurements from US9944630B1, “Dithiolane carbonate monomers and polymers thereof” (The Board of Trustees of the Leland Stanford Junior …, priority 2014, dated 2018).

Experiment: Loading of curcumin to polymeric micelles, UV-vis spectroscopy
Assay type: physicochemical
Method: The solution was added dropwise to 3 mL deionized water under stirring at room temperature. The solution was stirred for another 30 min and then dialyzed against deionized water for 24 h (MW cutoff=3500). The solution inside dialysis tubing was collected.

With `COc1cc(/C=C/C(=O)CC(=O)/C=C/c2ccc(O)c(OC)c2)ccc1O` [curcumin, Curcumin] the “effective concentration of curcumin dispersed in micelle solution” value (copolymer 1 micelle solution) was 187 µg/mL and the protection from hydrolysis (in hydrophobic micellar cores) was “effectively protect curcumin from hydrolysis”.
